Experiments:
[1] = molecular target: T1, Squalene synthase (Rattus norvegicus, UniProt Q02769); assay: Inhibitory concentration against mammalian Squalene synthase
T1 sequence (Q02769 whole entry): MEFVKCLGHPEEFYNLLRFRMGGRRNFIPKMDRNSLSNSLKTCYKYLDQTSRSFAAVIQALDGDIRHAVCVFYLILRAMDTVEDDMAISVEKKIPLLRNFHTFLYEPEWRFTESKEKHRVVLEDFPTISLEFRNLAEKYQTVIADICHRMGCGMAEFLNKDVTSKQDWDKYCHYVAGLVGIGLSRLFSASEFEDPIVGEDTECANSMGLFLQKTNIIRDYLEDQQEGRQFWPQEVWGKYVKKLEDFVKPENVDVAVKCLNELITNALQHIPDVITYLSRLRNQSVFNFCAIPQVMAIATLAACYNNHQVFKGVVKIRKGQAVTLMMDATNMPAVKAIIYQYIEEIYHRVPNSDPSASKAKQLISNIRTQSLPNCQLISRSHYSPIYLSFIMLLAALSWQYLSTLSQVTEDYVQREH

[2] = Lipid lowering ability after intravenous administration of 10 mg/Kg single dose; format: functional
[3] = Percent decrease in serum cholesterol levels after intravenous administration of 1 mg/Kg dose for 7 days; format: functional
[4] = Effective dose required for lipid lowering property in marmosets by oral administration for 7 days; format: functional; conditions: 168 h

Row | IC50 [1] [nM] | SMILES | also measured
1 | 252 | C=C(CC[C@]12O[C@H](C(=O)O)[C@@](O)(C(=O)O)[C@](C(=O)O)(O1)[C@H](O)[C@H]2O)[C@@H](O)[C@H](C)Cc1ccccc1 | 
2 | 500 | C=C(CC[C@]12O[C@H](C(=O)O)[C@@](O)(C(=O)O)[C@](C(=O)O)(O1)[C@H](O)[C@H]2O)[C@@H](OC)[C@H](C)Cc1ccccc1 | 
3 | 27 | C=CCO[C@H](C(=C)CC[C@]12O[C@H](C(=O)O)[C@@](O)(C(=O)O)[C@](C(=O)O)(O1)[C@H](O)[C@H]2O)[C@H](C)Cc1ccccc1 | 
4 | > 10000 | C=C(CC[C@]12O[C@H](C(=O)O)[C@@](O)(C(=O)O)[C@](C(=O)O)(O1)[C@H](O)[C@H]2O)[C@H](NC(C)=O)[C@H](C)Cc1ccccc1 | 
5 | 2290 | C=C(CC[C@]12O[C@H](C(=O)O)[C@@](O)(C(=O)O)[C@](C(=O)O)(O1)[C@H](O)[C@H]2O)[C@@H](OC(=O)C(C)(C)C)[C@H](C)Cc1ccccc1 | 
6 |  | C=C(CC[C@]12O[C@H](C(=O)O)[C@@](O)(C(=O)O)[C@](C(=O)O)(O1)[C@H](O)[C@H]2O)[C@@H](OC(C)=O)[C@H](C)Cc1ccccc1 | Lowering [2]: 30%
7 | 5 | C=C(CC[C@]12O[C@H](C(=O)O)[C@@](O)(C(=O)O)[C@](C(=O)O)(O1)[C@H](OC(=O)/C=C/[C@@H](C)C[C@@H](C)CC)[C@H]2O)[C@@H](O)[C@H](C)Cc1ccccc1 | 
8 | 532 | C=C(CC[C@]12O[C@H](C(=O)O)[C@@](O)(C(=O)O)[C@](C(=O)O)(O1)[C@H](O)[C@H]2O)[C@@H](OC(=O)c1ccccc1)[C@H](C)Cc1ccccc1 | 
9 | 40 | C=C(CC[C@]12O[C@H](C(=O)O)[C@@](O)(C(=O)O)[C@](C(=O)O)(O1)[C@H](O)[C@H]2O)[C@@H](OCC)[C@H](C)Cc1ccccc1 | 
10 | 1200 | C#CCO[C@H](C(=C)CC[C@]12O[C@H](C(=O)O)[C@@](O)(C(=O)O)[C@](C(=O)O)(O1)[C@H](O)[C@H]2O)[C@H](C)Cc1ccccc1 | 
11 | > 10000 | CC(=O)NC/C(=C\[C@H](C)Cc1ccccc1)CC[C@]12O[C@H](C(=O)O)[C@@](O)(C(=O)O)[C@](C(=O)O)(O1)[C@H](O)[C@H]2O | 
12 | 600 | C=C(CC[C@]12O[C@H](C(=O)O)[C@@](O)(C(=O)O)[C@](C(=O)O)(O1)[C@H](O)[C@H]2O)[C@@H](OCCC)[C@H](C)Cc1ccccc1 | 
13 | 49 | C=C(CC[C@]12O[C@H](C(=O)O)[C@@](O)(C(=O)O)[C@](C(=O)O)(O1)[C@H](O)[C@H]2O)[C@@H](OC(C)C)[C@H](C)Cc1ccccc1 | 
14 | 1420 | C=C(CC[C@]12O[C@H](C(=O)O)[C@@](O)(C(=O)O)[C@](C(=O)O)(O1)[C@H](O)[C@H]2O)[C@@H](OCc1ccccc1)[C@H](C)Cc1ccccc1 | 
15 | 33 | C=C(CC[C@]12O[C@H](C(=O)O)[C@@](O)(C(=O)O)[C@](C(=O)O)(O1)[C@H](O)[C@H]2O)[C@@H](OCC1CC1)[C@H](C)Cc1ccccc1 | 
16 | 2220 | C=C(CC[C@]12O[C@H](C(=O)O)[C@@](O)(C(=O)O)[C@](C(=O)O)(O1)[C@H](O)[C@H]2O)[C@@H](NC(C)=O)[C@H](C)Cc1ccccc1 | 
17 | > 10000 | CC(=O)NC/C(=C\[C@@H](C)Cc1ccccc1)CC[C@]12O[C@H](C(=O)O)[C@@](O)(C(=O)O)[C@](C(=O)O)(O1)[C@H](O)[C@H]2O | 
18 |  | C=C(CC[C@]12O[C@H](C(=O)O)[C@@](O)(C(=O)O)[C@](C(=O)O)(O1)[C@H](OC(=O)/C=C/[C@@H](C)C[C@@H](C)CC)[C@H]2O)[C@@H](OC(C)=O)[C@H](C)Cc1ccccc1 [ZARAGOZIC ACIDS A] | Decrease [3]: 60%; ED50 [4]: 10 mg/kg/day

Source: ChEMBL document CHEMBL1150033, “The squalestatins: effects of changes at the allylic centre in the C1 sidechain” (Bioorg Med Chem Lett, 1994)
